Consider 16 compounds from patent publication US12398140B2, “Substituted pyrrolo [2,3-d]pyrimidines for treating familial dysautonomia” (PTC THERAPEUTICS, INC., priority 2019, dated 2025).

Molecules are shown by their SMILES.

The test has as its system Elongator complex protein 1 (ELPI, also referred to as IKBKAP). As to the kind of experiment: IKBKAP-HTRF assay (IKBKAP protein in lysates of FD patient-derived fibroblasts). The class given is cell-based, human. Conditions: FD patient-derived fibroblasts GM04589, 48 hours, 7-point concentration curve. The procedure:
The assay is used for the quantitative determination of Elongator complex protein 1 (ELPI, also referred to as IKBKAP) concentration in cell lysates using the HTRF® (Homogeneous Time-Resolved Fluorescence) technology. IKBKAP is detected in a sandwich HTRF assay by use of an anti-IKAP antibody labeled with a donor and an anti-IKAP antibody labeled with an acceptor.
Cells were thawed and incubated in DMEM-10% FBS for 72 hours. Cells were trypsinized, counted, and re-suspended to a concentration of 50,000 cells/ml in DMEM-10% FBS. A 199 μL aliquot of the cell suspensions were plated at 10,000 cells per well in a 96 well microtiter plate and incubated for 3 to 5 hours. […] Test compounds were serially diluted 3.16-fold in 100% DMSO to generate a 7-point concentration curve. A 1 μL aliquot of 200× compound solution was transferred to cell-containing wells, and cells were incubated for 48 hours in a cell culture incubator (37° C., 5% CO2, 100% relative humidity). Triplicate samples were set up for each compound concentration. After 48 hours, the supernatant was removed from the cells and 50 μL of the 1×LB4 lysis buffer, containing protease inhibitors, was added to the cells and incubated with shaking at room temperature for 1 hour. A 36 μL aliquot of this lysate was subsequently transferred to the 384-well plate containing 4 μL of the antibody solution (1:50 dilution of anti IKAP d2 and anti-IKAP K(9+8) in detection buffer). The 384-well plate was then centrifuged for 1 minute to bring the solutions to the bottom of the plate and incubated overnight at 4° C. Fluorescence for each well of the plate at 665 nm and 620 nm was measured was on the EnVision plate reader (Perkin Elmer). The ΔF for each sample is calculated by:
[formula] wherein Signal is the normalized fluorescence for each sample well and Blank is the average normalized average fluorescence for the Blank control wells.
The maximum fold increase (MFI) in IKBKAP protein abundance for compounds of Formula (I) or a form thereof relative to the vehicle control are provided in Table 1. MFI was calculated by dividing the ΔF value for each sample well by the sample ΔF for the vehicle control wells.
The EC2x for IKBKAP protein expression obtained from the 7-point concentration curve generated for each test compound according to the protocol in Biological Example 1 are also provided in Table 1. The term “EC2x for IKBKAP protein expression” is defined as the concentration of test compound that is effective in producing two times the amount of IKBKAP protein in a FD patient cell compared to the amount produced from the DMSO vehicle control.
In general terms: In TR-FRET formats the signal depends on donor and acceptor labels being close together.
With `Cc1nc(NCc2ccco2)c2c(F)c(C[C@H](C)N)[nH]c2n1.Cl` [Cpd 34, 6-[(2S)-2-aminopropyl]-5-fluoro-N-[(furan-2-yl)methyl]-2-methyl-7H-pyrrolo[2,3-d]pyrimidin-4-amine hydrochloride], the “EC2x for IKBKAP protein expression (concentration producing two times the amount of IKBKAP protein vs DMSO vehicle control)” value is “*** (between >0.02 μM and ≤0.5 μM is indicated by three stars (***))”; the “MFI (maximum fold increase in IKBKAP protein abundance relative to the vehicle control)” value is on record as “***** (>4.9 is indicated by five stars (*****))”.

With `Cc1c(C[C@H](C)N)n(C)c2nc(Cl)nc(NCc3ccco3)c12.Cl` [Cpd 35, 6-[(2S)-2-aminopropyl]-2-chloro-N-[(furan-2-yl)methyl]-5,7-dimethyl-7H-pyrrolo[2,3-d]pyrimidin-4-amine hydrochloride], the “EC2x for IKBKAP protein expression (concentration producing two times the amount of IKBKAP protein vs DMSO vehicle control)” value is “**** (between >0.005 μM and ≤0.02 μM is indicated by four stars (****))”; the “MFI (maximum fold increase in IKBKAP protein abundance relative to the vehicle control)” value is recorded as “***** (>4.9 is indicated by five stars (*****))”.

In the case of `C[C@H](N)Cc1[nH]c2nc(Cl)nc(NCc3nccs3)c2c1F.Cl` [Cpd 36, 6-[(2S)-2-aminopropyl]-2-chloro-5-fluoro-N-[(1,3-thiazol-2-yl)methyl]-7H-pyrrolo[2,3-d]pyrimidin-4-amine hydrochloride], the “EC2x for IKBKAP protein expression (concentration producing two times the amount of IKBKAP protein vs DMSO vehicle control)” value was “**** (between >0.005 μM and ≤0.02 μM is indicated by four stars (****))”; the “MFI (maximum fold increase in IKBKAP protein abundance relative to the vehicle control)” value is listed as “***** (>4.9 is indicated by five stars (*****))”.

For the compound `COC[C@H](N)Cc1c(F)c2c(NCc3ccco3)nc(Cl)nc2n1C.Cl` [Cpd 37, 6-[(2R)-2-amino-3-methoxypropyl]-2-chloro-5-fluoro-N-[(furan-2-yl)methyl]-7-methyl-7H-pyrrolo[2,3-d]pyrimidin-4-amine hydrochloride], the “EC2x for IKBKAP protein expression (concentration producing two times the amount of IKBKAP protein vs DMSO vehicle control)” value was “*** (between >0.02 μM and ≤0.5 μM is indicated by three stars (***))”; the “MFI (maximum fold increase in IKBKAP protein abundance relative to the vehicle control)” value was “***** (>4.9 is indicated by five stars (*****))”.

In the case of `C[C@H](N)Cc1c(F)c2c(NCc3nccs3)nc(Cl)nc2n1C.Cl` [Cpd 38, 6-[(2S)-2-aminopropyl]-2-chloro-5-fluoro-7-methyl-N-[(1,3-thiazol-2-yl)methyl]-7H-pyrrolo[2,3-d]pyrimidin-4-amine hydrochloride], the “EC2x for IKBKAP protein expression (concentration producing two times the amount of IKBKAP protein vs DMSO vehicle control)” value was “*** (between >0.02 μM and ≤0.5 μM is indicated by three stars (***))”; the “MFI (maximum fold increase in IKBKAP protein abundance relative to the vehicle control)” value is “***** (>4.9 is indicated by five stars (*****))”.

As to `Cl.Cn1c(C[C@@H](N)CO)c(F)c2c(NCc3ccco3)nc(Cl)nc21` [Cpd 39, (2R)-2-amino-3-(2-chloro-5-fluoro-4-{[(furan-2-yl)methyl]amino}-7-methyl-7H-pyrrolo[2,3-d]pyrimidin-6-yl)propan-1-ol hydrochloride], the “EC2x for IKBKAP protein expression (concentration producing two times the amount of IKBKAP protein vs DMSO vehicle control)” value is “**** (between >0.005 μM and ≤0.02 μM is indicated by four stars (****))”; the “MFI (maximum fold increase in IKBKAP protein abundance relative to the vehicle control)” value is “***** (>4.9 is indicated by five stars (*****))”.

For the compound `C[C@H](N)Cc1[nH]c2nc(Cl)nc(NCc3cccs3)c2c1F.Cl` [Cpd 40, 6-[(2S)-2-aminopropyl]-2-chloro-5-fluoro-N-[(thiophen-2-yl)methyl]-7H-pyrrolo[2,3-d]pyrimidin-4-amine hydrochloride], the “EC2x for IKBKAP protein expression (concentration producing two times the amount of IKBKAP protein vs DMSO vehicle control)” value is “**** (between >0.005 μM and ≤0.02 μM is indicated by four stars (****))”; the “MFI (maximum fold increase in IKBKAP protein abundance relative to the vehicle control)” value is reported as “***** (>4.9 is indicated by five stars (*****))”.

As to `C[C@H](N)Cc1c(F)c2c(NCc3ccncc3F)nc(Cl)nc2n1C.Cl.Cl` [Cpd 41, 6-[(2S)-2-aminopropyl]-2-chloro-5-fluoro-N-[(3-fluoropyridin-4-yl)methyl]-7-methyl-7H-pyrrolo[2,3-d]pyrimidin-4-amine dihydrochloride], the “EC2x for IKBKAP protein expression (concentration producing two times the amount of IKBKAP protein vs DMSO vehicle control)” value was “*** (between >0.02 μM and ≤0.5 μM is indicated by three stars (***))”; the “MFI (maximum fold increase in IKBKAP protein abundance relative to the vehicle control)” value is reported as “***** (>4.9 is indicated by five stars (*****))”.

For `CCn1c(C[C@H](C)N)c(F)c2c(NCc3ccco3)nc(Cl)nc21.Cl` [Cpd 42, 6-[(2S)-2-aminopropyl]-2-chloro-7-ethyl-5-fluoro-N-[(furan-2-yl)methyl]-7H-pyrrolo[2,3-d]pyrimidin-4-amine hydrochloride], the “EC2x for IKBKAP protein expression (concentration producing two times the amount of IKBKAP protein vs DMSO vehicle control)” value was “*** (between >0.02 μM and ≤0.5 μM is indicated by three stars (***))”; the “MFI (maximum fold increase in IKBKAP protein abundance relative to the vehicle control)” value was “** (between >1.9 and ≤2.9 is indicated by two stars (**))”.

With `C[C@H](N)Cc1c(F)c2c(NCc3ccncc3)nc(Cl)nc2n1C.Cl.Cl` [Cpd 43, 6-[(2S)-2-aminopropyl]-2-chloro-5-fluoro-7-methyl-N-[(pyridin-4-yl)methyl]-7H-pyrrolo[2,3-d]pyrimidin-4-amine dihydrochloride], the “EC2x for IKBKAP protein expression (concentration producing two times the amount of IKBKAP protein vs DMSO vehicle control)” value was “*** (between >0.02 μM and ≤0.5 μM is indicated by three stars (***))”; the “MFI (maximum fold increase in IKBKAP protein abundance relative to the vehicle control)” value is reported as “***** (>4.9 is indicated by five stars (*****))”.

`CC[C@H](N)Cc1[nH]c2nc(Cl)nc(NCc3ccco3)c2c1F.Cl` [Cpd 44, 6-[(2S)-2-aminobutyl]-2-chloro-5-fluoro-N-[(furan-2-yl)methyl]-7H-pyrrolo[2,3-d]pyrimidin-4-amine hydrochloride]: the “EC2x for IKBKAP protein expression (concentration producing two times the amount of IKBKAP protein vs DMSO vehicle control)” value is “**** (between >0.005 μM and ≤0.02 μM is indicated by four stars (****))”; the “MFI (maximum fold increase in IKBKAP protein abundance relative to the vehicle control)” value is given as “***** (>4.9 is indicated by five stars (*****))”.

With `CC[C@H](N)Cc1c(F)c2c(NCc3ccco3)nc(Cl)nc2n1C.Cl` [Cpd 45, 6-[(2S)-2-aminobutyl]-2-chloro-5-fluoro-N-[(furan-2-yl)methyl]-7-methyl-7H-pyrrolo[2,3-d]pyrimidin-4-amine hydrochloride], the “EC2x for IKBKAP protein expression (concentration producing two times the amount of IKBKAP protein vs DMSO vehicle control)” value is “*** (between >0.02 μM and ≤0.5 μM is indicated by three stars (***))”; the “MFI (maximum fold increase in IKBKAP protein abundance relative to the vehicle control)” value is “***** (>4.9 is indicated by five stars (*****))”.

`COc1ccc(-n2c(C[C@H](C)N)c(F)c3c(NCc4ccco4)nc(Cl)nc32)cc1.Cl` [Cpd 46, 6-[(2S)-2-aminopropyl]-2-chloro-5-fluoro-N-[(furan-2-yl)methyl]-7-(4-methoxyphenyl)-7H-pyrrolo[2,3-d]pyrimidin-4-amine hydrochloride]: the “EC2x for IKBKAP protein expression (concentration producing two times the amount of IKBKAP protein vs DMSO vehicle control)” value is listed as “* (An EC2x>1 μM is indicated by one star (*))” and the “MFI (maximum fold increase in IKBKAP protein abundance relative to the vehicle control)” value was “* (An MFI≤1.9 is indicated by one star (*))”.

Take `COc1ccc(-n2c(C[C@H](C)N)c(F)c3c(NCc4cccs4)nc(Cl)nc32)cc1.Cl` [Cpd 47, 6-[(2S)-2-aminopropyl]-2-chloro-5-fluoro-7-(4-methoxyphenyl)-N-[(thiophen-2-yl)methyl]-7H-pyrrolo[2,3-d]pyrimidin-4-amine hydrochloride]: the “EC2x for IKBKAP protein expression (concentration producing two times the amount of IKBKAP protein vs DMSO vehicle control)” value is “* (An EC2x>1 μM is indicated by one star (*))” and the “MFI (maximum fold increase in IKBKAP protein abundance relative to the vehicle control)” value was “* (An MFI≤1.9 is indicated by one star (*))”.

For the compound `C[C@H](N)Cc1c(F)c2c(NCc3cncs3)nc(Cl)nc2n1C.Cl.Cl` [Cpd 48, 6-[(2S)-2-aminopropyl]-2-chloro-5-fluoro-7-methyl-N-[(1,3-thiazol-5-yl)methyl]-7H-pyrrolo[2,3-d]pyrimidin-4-amine dihydrochloride], the “EC2x for IKBKAP protein expression (concentration producing two times the amount of IKBKAP protein vs DMSO vehicle control)” value was “* (An EC2x>1 μM is indicated by one star (*))” and the “MFI (maximum fold increase in IKBKAP protein abundance relative to the vehicle control)” value was “* (An MFI≤1.9 is indicated by one star (*))”.

As for `C[C@H](N)Cc1c(F)c2c(NCc3cccs3)nc(Cl)nc2n1C.Cl` [Cpd 49, 6-[(2S)-2-aminopropyl]-2-chloro-5-fluoro-7-methyl-N-[(thiophen-2-yl)methyl]-7H-pyrrolo[2,3-d]pyrimidin-4-amine hydrochloride], the “EC2x for IKBKAP protein expression (concentration producing two times the amount of IKBKAP protein vs DMSO vehicle control)” value was “**** (between >0.005 μM and ≤0.02 μM is indicated by four stars (****))”; the “MFI (maximum fold increase in IKBKAP protein abundance relative to the vehicle control)” value is recorded as “***** (>4.9 is indicated by five stars (*****))”.
